Read-outs that look alike come from different tables or passages of the source.
What was measured:
SARS-CoV-2 WA/1 [1] = assay: microbe, parasite or virus in culture; type: cell-based; details: Severe acute respiratory syndrome coronavirus 2, read-out: EC50, inhibition of SARS-CoV-2 replication
SARS-CoV Urbani = type: cell-based; details: HAE, two donors, 10, 1, 0.1 μM, MOI 0.5, 72 hpi
bat-CoV RsSHC014 = type: cell-based
SARS-CoV-2 WA/1 [2] = type: cell-based
SARS-CoV-2 Omicron BA.1 = type: cell-based
MERS-CoV = type: cell-based; details: HAE, two donors, 10, 1, 0.1 μM, MOI 0.5, 72 hpi
[3] = system: SARS-like bat-CoV RsSHC014; type: in vivo, mouse
[4] = system: SARS-CoV-2 Omicron (B.1.1.529/BA.1); details: mouse, in vivo
[5] = system: primary human airway epithelial (HAE) cells
[6] = not told; cited from earlier work
[7] = Mouse GS-5245 pharmacokinetic study; details: 30 mg/kg GS-5245 oral, timepoints over 24 hr, three mouse strains
[8] = direct oral dosing of GS-441524, non-human primates; cited from earlier work

In the case of `CC(C)(C)[C@H](NC(=O)C(F)(F)F)C(=O)N1C[C@H]2[C@@H]([C@H]1C(=O)N[C@H](C#N)C[C@@H]1CCNC1=O)C2(C)C` [nirmatrelvir], the EC50 (SARS-CoV-2 WA/1 [1]) is reported as 0.07 µM.
For `CCC(CC)COC(=O)[C@H](C)N[P@](=O)(OC[C@H]1O[C@@](C#N)(c2ccc3c(N)ncnn23)[C@H](O)[C@@H]1O)Oc1ccccc1` [remdesivir], the EC50 (SARS-CoV-2 WA/1 [1]) was 0.19 µM and the cytotoxicity (LLC-MK2-TMPRSS2 cells) was “without cytotoxicity”.
For `CC(C)C(=O)OC[C@H]1O[C@@](C#N)(c2ccc3c(N)ncnn23)[C@H](O)[C@@H]1O` [GS-5245], the EC50 (SARS-CoV-2 WA/1 [1]) was 0.74 µM, the “infectious virus production (PFU in apical washes)” value (shortened to “infectious virus production”) (SARS-CoV Urbani) was “dose-dependent reduction in infectious virus production” and the “infectious virus production” value (bat-CoV RsSHC014) was “dose-dependent reduction in infectious virus production”. For the same molecule, the “infectious virus production” value (SARS-CoV-2 WA/1 [2]) was “dose-dependent reduction in infectious virus production”, the “infectious virus production” value (SARS-CoV-2 Omicron BA.1) was “dose-dependent reduction in infectious virus production” and the “infectious virus production” value (MERS-CoV) was “dose-dependent reduction in infectious virus production”. For the same molecule, the “viral titers and gross lung pathology” value ([3]; 10 mg/kg BID, 12 or 24 hpi, 4 dpi) was “did not exhibit reduced viral titers”, the “body weight compared to vehicle-treated mice” value ([3]; 30 mg/kg BID initiated at 12 hpi) was “increased weight” and the “virus lung titers and gross lung pathology” value ([3]; 30 mg/kg BID, irrespective of initiation time (12 or 24 hpi), 4 dpi) was “reduced virus lung titers and gross lung pathology”. The “acute lung injury scores (ATS and DAD)” value ([3]; 30 mg/kg initiated 24 hpi, 4 dpi) was “reductions in DAD scores only”, the “acute lung injury scores (ATS and DAD)” value ([3]; 30 mg/kg initiated at 12 hpi, 4 dpi) was “reduced acute lung injury scores with both scoring tools” and the “ATS ALI and DAD scores” value [4] was “Unlike ATS ALI scores (Fig. 6D), DAD scores were different”. For the same molecule, the “lung viral titers relative to vehicle” value [4] was “lower lung viral titers”, the macroscopic lung pathology [4] was “less macroscopic lung pathology” and the cytotoxicity (A549-hACE2 cells) was “without cytotoxicity”. For the same molecule, the cytotoxicity (LLC-MK2-TMPRSS2 cells) was “without cytotoxicity”, the “cytotoxicity in HAE” value [5] was “without measurable cytotoxicity” and the cellular permeability [6] was “increased cellular permeability over GS-441524”. For the same molecule, the “intact GS-5245 prodrug in plasma” value [7] was “No intact GS-5245 prodrug was observed at any timepoint sampled”.
In the case of `N#C[C@@]1(c2ccc3c(N)ncnn23)O[C@H](CO)[C@@H](O)[C@H]1O` [GS-441524], the EC50 (SARS-CoV-2 WA/1 [1]) is listed as 4.6 µM, the cytotoxicity (LLC-MK2-TMPRSS2 cells) is listed as “without cytotoxicity” and the oral bioavailability [8] is listed as “low bioavailability”.
